In the NIST ThermoML archive (doi:10.1016/j.jct.2009.08.004):
Numbers after ± are expanded uncertainties.

Test: mn = molality of the nth substance listed, in mol/kg
Conditions: 298.15 K, 101 kPa, Liquid, Pulse-echo method

speed of sound (m1 = 0.02692): 1499.5 ± 0.77 m/s | speed of sound (m1 = 0.03696): 1500.6 ± 0.77 m/s | speed of sound (m1 = 0.04335): 1501.3 ± 0.77 m/s | speed of sound (m1 = 0.05037): 1502 ± 0.77 m/s | speed of sound (m1 = 0.06228): 1503.2 ± 0.77 m/s
SMILES: NCC(=O)N[C@@H](CO)C(=O)NCC(=O)O [glycyl-L-serylglycine] + O
